From patent US20250034170A1, “SMALL MOLECULE MODULATORS OF GLUCOCEREBROSIDASE ACTIVITY AND USES THEREOF” (Vanqua Bio, Inc., priority 2021, published 2025) come the findings set out here.

For orientation: EC50 means the concentration needed to bring the measured effect to its halfway point. A lower EC50 goes with higher potency in that assay.

This experiment deals with T1, GCase (Homo sapiens, UniProt P04062).
T1 construct: endogenous in cells; host or cells: HeLa cells
T1 sequence (P04062 40-536): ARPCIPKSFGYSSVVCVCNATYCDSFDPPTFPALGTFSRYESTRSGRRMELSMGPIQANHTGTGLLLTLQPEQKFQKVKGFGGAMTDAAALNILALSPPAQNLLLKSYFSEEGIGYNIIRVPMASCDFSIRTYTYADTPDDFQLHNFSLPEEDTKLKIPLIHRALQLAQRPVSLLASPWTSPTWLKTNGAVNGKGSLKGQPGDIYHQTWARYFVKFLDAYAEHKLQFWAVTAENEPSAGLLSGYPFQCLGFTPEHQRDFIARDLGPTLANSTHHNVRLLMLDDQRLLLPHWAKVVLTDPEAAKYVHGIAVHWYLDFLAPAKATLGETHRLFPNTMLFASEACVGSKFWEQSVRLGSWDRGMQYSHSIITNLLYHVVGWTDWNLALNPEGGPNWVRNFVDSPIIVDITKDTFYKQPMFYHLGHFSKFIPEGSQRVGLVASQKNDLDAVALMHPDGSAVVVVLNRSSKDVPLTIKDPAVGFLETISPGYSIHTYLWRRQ
As to the kind of experiment: activation of GCase in a live cell PFB assay in HELA cells. In kind it is cell-based. Here is the method:
Exemplary compounds were evaluated for activation of GCase in a live cell PFB assay in HELA cells (essentially as described in Ysselstein et al., “LRRK2 kinase activity regulates lysosomal glucocerebrosidase in neurons derived from Parkinson's disease patients” Nature Communications (2019) 10:5570). […] EC50 ranges: A: <10 μM; B: >10-50 μM; C: >50-100 μM; D: >100 μM.

Setting [1] is: activation of GCase, EC50 ranges.

For the molecule `FC(F)(F)c1cc(N2CCCC3(C2)CN(c2cnc4cnn(Cc5ccccc5)c4n2)C3)ccn1` [Compound 104, 2-{1-benzyl-1H-pyrazolo[3,4-b]pyrazin-6-yl}-6-[2-(trifluoromethyl)pyridin-4-yl]-2,6-diazaspiro[3.5]nonane], under setting [1], the EC50 is 10 to 50 µM.
`FC(F)Cn1ncc2ncc(N3CCCC4(CC(Oc5cc(C(F)(F)F)ccn5)C4)C3)nc21` (centres unmarked) [Compound 29, 6-[1-(2,2-difluoroethyl)-1H-pyrazolo[3,4-b]pyrazin-6-yl]-2-{[4-(trifluoromethyl)pyridin-2-yl]oxy}-6-azaspiro[3.5]nonane] returned a concentration giving a half-maximal response (EC50) under setting [1] of 10 to 50 µM.
The same measure, in the same setting: the result for `COc1nc2cnn(CC(F)F)c2nc1N1CCC2(CC1)CCN(c1ccc(C(F)(F)F)nc1)C2=O` [Cmpd 834] reads less than 10 µM.
In turn, `FC(F)Cn1ncc2ncc(N3CCC4(CCN(c5ccc(C(F)(F)F)nn5)C4)CC3)nc21` [Cmpd 732] returned an EC50 under setting [1] of 10 to 50 µM.
The same measure, in the same setting: the result for `FC(F)Cn1ncc2ncc(N3CCC4(CCN(c5ccnc(C(F)(F)F)n5)C4)C3)nc21` (centres unmarked) [Cmpd 484] reads less than 10 µM; that for `CC(c1ccc(Cl)cn1)N1CC2(CCN(c3cnc4cnn(CC(F)F)c4n3)CC2)CC1=O` (centres unmarked) [Cmpd 967], less than 10 µM.
The same measure, in the same setting: the result for `Cc1nc(OCC(F)(F)F)ncc1N1CC2(CCN(c3cnc4cnn(CC(F)F)c4n3)C2)C1` [Cmpd 959] reads 10 to 50 µM.
The molecule `FC(F)Cn1ncc2ncc(N3CCC4(CC3)CC(COc3ccc(C(F)(F)F)cn3)C4)nc21` [Cmpd 702] had an EC50 under setting [1] of 10 to 50 µM.
For the molecule `FC(F)Cn1ncc2ncc(N3CCCC4(CCN(c5cccnc5C(F)(F)F)C4)C3)nc21` (centres unmarked) [Compound 5, 7-[1-(2,2-difluoroethyl)-1H-pyrazolo[3,4-b]pyrazin-6-yl]-2-[2-(trifluoromethyl)pyridin-3-yl]-2,7-diazaspiro[4.5]decane], under setting [1], the EC50 was less than 10 µM.
Still for that read-out and setting: the result for `FC(F)Cn1ncc2ncc(N3CC4(CC(COc5cc(C(F)(F)F)ccn5)C4)C3)nc21` [Compound 132, 2-[1-(2,2-difluoroethyl)-1H-pyrazolo[3,4-b]pyrazin-6-yl]-6-({[4-(trifluoromethyl)pyridin-2-yl]oxy}methyl)-2-azaspiro[3.3]heptane] reads 10 to 50 µM.
On the same count and under the same terms, the result for `O=C1N(c2cnc(C(F)(F)F)s2)CCC12CCN(c1cnc3cnn(CC(F)F)c3n1)CC2` [Cmpd 841] reads less than 10 µM.
In the case of `FC(F)Cn1ncc2ncc(N3CCC4(CCCN4c4ccnc(C(F)(F)F)c4)C3)nc21` (centres unmarked) [Compound 188, 7-[1-(2,2-difluoroethyl)-1H-pyrazolo[3,4-b]pyrazin-6-yl]-1-[2-(trifluoromethyl)pyridin-4-yl]-1,7-diazaspiro[4.4]nonane], the concentration giving a half-maximal response (EC50) (EC50 given as range classes) is greater than 100 µM.
`FC(F)Cn1ncc2ncc(N3CCC4(CCC4Oc4cccnc4C(F)(F)F)CC3)nc21` (centres unmarked) [Compound 87, 7-[1-(2,2-difluoroethyl)-1H-pyrazolo[3,4-b]pyrazin-6-yl]-1-{[2-(trifluoromethyl)pyridin-3-yl]oxy}-7-azaspiro[3.5]nonane] registered an EC50 under setting [1] of less than 10 µM.
Same read-out and setting: the value for `CCc1nn(C2COC2)c2nc(N3CCC4(CN(c5cc(C(F)(F)F)nc(C)n5)C4)C3)ncc12` [Cmpd 1067] was less than 10 µM.
Still for that read-out and setting: the value for `FC(F)Cn1ncc2ncc(N3CCC4(CN(c5ccc(OCC(F)(F)F)nc5)C4)C3)nc21` [Cmpd 436] was 10 to 50 µM.
Under “EC50 given as range classes”, `FC(F)Cn1ncc2ncc(N3CCOC4(CCN(c5ccc(C(F)(F)F)cn5)CC4)C3)nc21` [Cmpd 212] displayed a concentration giving a half-maximal response (EC50) of 10 to 50 µM.
Turning to `O=C1N(c2cc(C(F)(F)F)ccn2)CCC12CCN(c1cncc(N3CCOCC3)n1)CC2` [Cmpd 246], under setting [1], the EC50 lay in the range of 10 to 50 µM.
Molecule `FC(F)Cn1ncc2ncc(N3CCCC4(CC(Oc5ccnc(C(F)(F)F)c5)C4)C3)nc21` (centres unmarked) [Compound 13, 6-[1-(2,2-difluoroethyl)-1H-pyrazolo[3,4-b]pyrazin-6-yl]-2-{[2-(trifluoromethyl)pyridin-4-yl]oxy}-6-azaspiro[3.5]nonane] yielded a half-maximal effective concentration (EC50) under setting [1] of 10 to 50 µM.
`Cc1nc(N2CCC3(CCN(c4ccc5c(C)nn(CC(F)F)c5n4)CC3)C2)cc(C(F)(F)F)n1` [Cmpd 626] gave an EC50 (EC50 given as range classes) of less than 10 µM.
`O=C1N(c2cnc(C(F)(F)F)nc2)CCC12CCN(c1cnc3cnn(CC(F)F)c3n1)CC2` [Cmpd 306] came in with an EC50 under setting [1] of 10 to 50 µM.
For `FC(F)Cn1ncc2ncc(N3CCC4(CCN(c5ccnc(OCC(F)(F)F)n5)C4)CC3)nc21` [Cmpd 738], the EC50 under setting [1] is less than 10 µM.
As for `Cc1cnc(C(F)(F)F)cc1N1CC2(CCN(c3cnc4cnn(C5COC5)c4n3)C2)C1` [Cmpd 1042], the 50% effective concentration (EC50) under setting [1] was greater than 100 µM.
In turn, `FC(F)Cn1ncc2ncc(N3CCC4(CCCN(c5cncc(C(F)(F)F)c5)C4)CC3)nc21` [Cmpd 215] registered an EC50 (EC50 given as range classes) of less than 10 µM.
On to `Cn1c(N2CCC3(CCN(c4ncc(C(F)(F)F)cn4)C3)CC2)nc2c(cnn2C2COC2)c1=O` [Cmpd 1058], for which, under setting [1], the EC50 was 10 to 50 µM.
Molecule `Cc1nc(N2CC3(CCN(c4cnc5cnn(CC(F)F)c5n4)C3)C2)ncc1Cl` [Cmpd 402] showed a 50% effective concentration (EC50) (EC50 given as range classes) greater than 100 µM.
Take `CCC1N(c2ccc(C(F)(F)F)cn2)C(=O)CC12CCN(c1cnc3cnn(C4COC4)c3n1)CC2` (centres unmarked) [Cmpd 859]: under setting [1], the EC50 lay within 10 to 50 µM.
Same read-out and setting: the result for `FC(F)Cn1ncc2ncc(N3CC4(CCCN(c5ncccc5C(F)(F)F)C4)C3)nc21` [Compound 39, 2-[1-(2,2-difluoroethyl)-1H-pyrazolo[3,4-b]pyrazin-6-yl]-6-[3-(trifluoromethyl)pyridin-2-yl]-2,6-diazaspiro[3.5]nonane] reads 50 to 100 µM.
`FC(F)Cn1ncc2ncc(N3CCC4(CN(c5ccnc(C(F)(F)F)n5)C4)C3)nc21` [Cmpd 318] showed an EC50 under setting [1] of 10 to 50 µM.
The same measure, in the same setting: the value for `Cc1nn(CC(F)F)c2nc(N3CCC4(CC3)CC(=O)N(c3nccc(C(F)(F)F)n3)C4)cnc12` [Cmpd 282] was less than 10 µM; that for `FC(F)Cn1ncc2ncc(N3CCC4(CC3)CCN(c3cccnc3C(F)(F)F)C4)nc21` [Compound 146, 8-[1-(2,2-difluoroethyl)-1H-pyrazolo[3,4-b]pyrazin-6-yl]-2-[2-(trifluoromethyl)pyridin-3-yl]-2,8-diazaspiro[4.5]decane] was less than 10 µM.
Same read-out and setting: the result for `Cc1nc(N2CCC3(CCN(c4cnc5cnn(CC(F)(F)F)c5n4)CC3)C2)cc(C(F)(F)F)n1` [Cmpd 571] reads 10 to 50 µM; that for `COc1nn(CC(F)F)c2nc(N3CCC4(CC3)CCN(c3ccc(C(F)(F)F)nc3)C4=O)cnc12` [Cmpd 835], less than 10 µM.
On the same count and under the same terms, the result for `FC(F)Cn1ncc2ncc(N3CCC4(CCC4COc4cccc(C(F)(F)F)n4)CC3)nc21` (centres unmarked) [Compound 82, 7-[1-(2,2-difluoroethyl)-1H-pyrazolo[3,4-b]pyrazin-6-yl]-1-({[6-(trifluoromethyl)pyridin-2-yl]oxy}methyl)-7-azaspiro[3.5]nonane] reads 10 to 50 µM; that for `O=C1CC2(CCN(c3cnc4cnn(CC(F)F)c4n3)CC2)CN1Cc1ccc(C(F)(F)F)cc1F` [Cmpd 446], less than 10 µM.
For `Cc1nc(N2CC3(CCN(c4ncc5c(C)nn(C)c5n4)C3)C2)cc(C(F)(F)F)n1` [Cmpd 648], the EC50 under setting [1] is less than 10 µM.
Regarding `FC(F)Cn1ncc2ncc(N3CCC4(CCN(c5cncc(C(F)(F)F)c5)CC4)CC3)nc21` [Cmpd 808], the EC50 (EC50 given as range classes) was 10 to 50 µM.
Where the note is “EC50 given as range classes”, `CC(C)c1cnc(C(F)(F)F)cc1N1CC2(CCN(c3cnc4cnn(CC(F)F)c4n3)C2)C1` [Cmpd 1030] displayed a half-maximal effective concentration (EC50) of less than 10 µM.
In turn, `FC(F)Cn1ncc2ncc(N3CCC4(CC3)CC(COc3cccc(C(F)(F)F)n3)C4)nc21` [Compound 85, 7-[1-(2,2-difluoroethyl)-1H-pyrazolo[3,4-b]pyrazin-6-yl]-2-({[6-(trifluoromethyl)pyridin-2-yl]oxy}methyl)-7-azaspiro[3.5]nonane] displayed an EC50 under setting [1] of 10 to 50 µM.
`FC(F)Cn1ncc2ncc(N3CC4(CCN(c5cncc(C(F)(F)F)c5)C4)C3)nc21` [Compound 184, 2-[1-(2,2-difluoroethyl)-1H-pyrazolo[3,4-b]pyrazin-6-yl]-6-[5-(trifluoromethyl)pyridin-3-yl]-2,6-diazaspiro[3.4]octane]: the EC50 (EC50 given as range classes) was in the range of 10 to 50 µM.
`Cc1nn(CC(F)F)c2nc(N3CCC4(CCN(c5ccnc(C(F)(F)F)c5)C4)C3)cnc12` (centres unmarked) [Cmpd 485] registered an EC50 under setting [1] greater than 100 µM.
With `CCOc1nn(CC(F)F)c2nc(N3CCC4(CN(c5ccnc(C(F)(F)F)c5)C4)C3)ncc12` [Cmpd 939], the EC50 under setting [1] is less than 10 µM.
Still for that read-out and setting: the result for `Cc1nc(N2CC3(CCN(c4ncc5cnn(CC(C)(F)F)c5n4)C3)C2)cc(C(F)(F)F)n1` [Cmpd 1135] reads 10 to 50 µM; that for `Cc1nc2cnn(CC(F)F)c2nc1N1CCC2(CN(c3ccnc(C(F)(F)F)c3)C2)C1` [Cmpd 1035], less than 10 µM.
In turn, `Cc1ncc(N2CCC3(CCN(c4cnc5cnn(CC(F)F)c5n4)CC3)C2)c(C(F)(F)F)n1` [Cmpd 601] yielded an EC50 (EC50 given as range classes) of less than 10 µM.
`CC1CN(c2cnc3cnn(CC(F)F)c3n2)CCC12CCN(c1cc(C(F)(F)F)ccn1)C2` (centres unmarked) [Cmpd 746] returned a concentration giving a half-maximal response (EC50) under setting [1] of less than 10 µM.
Take `FC(F)Cn1ncc2ncc(NC3CCC4(C3)CN(c3ccc(C(F)(F)F)nc3)C4)nc21` (centres unmarked) [Compound 189, N-[1-(2,2-difluoroethyl)-1H-pyrazolo[3,4-b]pyrazin-6-yl]-2-[6-(trifluoromethyl)pyridin-3-yl]-2-azaspiro[3.4]octan-6-amine]: where the note is “EC50 given as range classes”, the EC50 was less than 10 µM.
Under setting [1], `CCC1N(c2ccnc(C(F)(F)F)n2)C(=O)CC12CCN(c1cnc3cnn(CC(F)F)c3n1)CC2` (centres unmarked) [Cmpd 904] displayed an EC50 of less than 10 µM.
